Measured values taken from patent publication US9044480B1, “Compositions and methods for treating HCV” (priority 2011, dated 2015).
Where two headings read alike, the source gives them in different places.

What was measured:
HCV R155K mutation = settings: clinical trials and replicon cell assays (Bartels et al.; Lu et al.; Zhou et al.); cited from earlier work
[1] = tested on: NS3 protease domain from GT 1b HCV-infected subjects in replicon shuttle vector; assay: Replicon transient transfection EC50, NS3 protease domain from subjects cloned into shuttle vector, GT 1b; format: cell-based; settings: for EC50: Hepatitis C virus, GT1B
Text: (§1) Viral RNA was isolated from the plasma of HCV-infected patients at baseline (Day 1) and Day 4 by using an automated (Abbott m2000) or manual (QIAgen QIAamp Viral RNA Mini Kit) method. Amplicons containing the NS3-4A region were generated by RT-PCR, and PCR fragments containing the first 250 amino acids of NS3 were generated in a second round of PCR. The NS3 domain fragment was subsequently cloned into pJET (Fermentas) vector for clonal sequencing or digested with restriction enzymes and cloned into the replicon shuttle vector for phenotypic analysis. The lower limit of detection of the RT-PCR amplification method restricted the analysis to patient samples with HCV RNA levels above ˜500-1000 IU/mL.
(§2) Phenotypic analyses of clinical samples were also performed. For replicon transient transfection assays, RNA was transcribed from linearized plasmid DNA using a TranscriptAid T7 transcription kit (Fermentas) and 15 μg RNA was electroporated into Huh7-derived cells. For EC50 determinations, various concentrations of Compound I were added to cells 1-2 hr after plating and the cells were cultured for 4 days, followed by measurement of luciferase activity with a luciferase assay system kit (Promega).

Aqueous solubility = format: physicochemical
GT 1a replicon R155K = assay: HCV subgenomic replicon system, GT 1a R155K; format: cell-based
Procedure: as §2

GT 1a replicon D168V = assay: HCV subgenomic replicon system, GT 1a D168V; format: cell-based
Procedure: as §2

[2] = tested on: NS3 protease domain from GT 1a HCV-infected subjects in replicon shuttle vector; assay: Replicon transient transfection EC50, NS3 protease domain from subjects cloned into shuttle vector, GT 1a; format: cell-based; settings: for Fold Change: GT 1a; for EC50: Hepatitis C virus, GT1A
Text: as §1
Phenotypic analyses of clinical samples were also performed. For replicon transient transfection assays, RNA was transcribed from linearized plasmid DNA using a TranscriptAid T7 transcription kit (Fermentas) and 15 μg RNA was electroporated into Huh7-derived cells. […]

GT 1a replicon D168A = assay: HCV subgenomic replicon system, GT 1a D168A; format: cell-based
Procedure: as §2

GT 1b replicon WT = assay: HCV subgenomic replicon system, GT 1b WT; format: cell-based; settings: Hepatitis C virus, GT1B
Procedure: as §2

GT 1a replicon WT = assay: HCV subgenomic replicon system, GT 1a WT; format: cell-based; settings: Hepatitis C virus, GT1A
Procedure: as §2

GT 1a replicon R155G = assay: HCV subgenomic replicon system, GT 1a R155G; format: cell-based
Procedure: as §2

GT 1b replicon D168V = assay: HCV subgenomic replicon system, GT 1b D168V; format: cell-based
Procedure: as §2

HCV = settings: R155K (danoprevir) or R155K/D168V (vaniprevir) mutants detected; cited from earlier work

For `COc1ccc2c(O[C@@H]3C[C@H]4C(=O)N[C@]5(C(=O)O)C[C@H]5/C=C\CCCCC[C@H](NC(=O)OC5CCCC5)C(=O)N4C3)cc(-c3csc(NC(C)C)n3)nc2c1` [BILN 2061], which “Resistance conferred by the R155K mutation” value (HCV R155K mutation) is on record?
The value was “high-level resistant”.

What does the source list for `Cc1cnc(C(=O)N[C@H]2CCCCC/C=C\[C@@H]3C[C@@]3(C(=O)NS(=O)(=O)C3CC3)NC(=O)[C@@H]3C[C@@H](Oc4nc5ccccc5c5ccccc45)CN3C2=O)cn1` [Compound I, (2R,6S,13aS,14aR,16aS,Z)—N-(cyclopropylsulfonyl)-6-(5-methylpyrazine-2-carboxamido)-5,16-dioxo-2-(phenanthridin-6-yloxy)-1,2,3,5,6,7,8,9,10,11,13a,14,14a,15,16,16a-hexadecahydrocyclopropa[e]pyrrolo[1,2-a][1,4]diazacyclopentadecine-14a-carboxamide]?
EC50 ([1]; 24 h, read-out: EC50 Day 1, Subject F, GT 1b, 200/100 mg dose group, Day 1 (baseline) sample): 0.04 nM; EC50 ([1]; 24 h, read-out: EC50 Day 1, Subject J, GT 1b, 100/100 mg dose group, Day 1 (baseline) sample): 0.04 nM; EC50 ([1]; 24 h, read-out: EC50 Day 1, Subject K, GT 1b, 100/100 mg dose group, Day 1 (baseline) sample): 0.07 nM; EC50 ([1]; 24 h, read-out: EC50 Day 1, Subject O, GT 1b, 100/100 mg dose group, Day 1 (baseline) sample): 0.05 nM; EC50 ([1]; 24 h, read-out: EC50 Day 1, Subject S, GT 1b, 50/100 mg dose group, Day 1 (baseline) sample): 0.06 nM; EC50 ([1]; 96 h, read-out: EC50 Day 4, Subject J, GT 1b, 100/100 mg dose group, Day 4 sample): 15.5 nM; EC50 shift at day 4 relative to baseline ([1]; single GT 1b subject (J), 100/100 mg dose group): 368 fold; Aqueous solubility (Aqueous solubility): low aqueous solubility; Fold Change (GT 1a replicon R155K; EC50 of GT 1a R155K vs GT 1a WT): 43; EC50 (GT 1a replicon R155K; Hepatitis C virus, GT1A): 51.5 nM; Fold Change (GT 1a replicon D168V; EC50 of GT 1a D168V vs GT 1a WT): 115; EC50 (GT 1a replicon D168V; Hepatitis C virus, GT1A): 136 nM; Fold Change ([2]; EC50 Day 4 vs Day 1, Subject A, 200/100 mg dose group): 0.9; Fold Change ([2]; EC50 Day 4 vs Day 1, Subject B, 200/100 mg dose group): 0.8; Fold Change ([2]; EC50 Day 4 vs Day 1, Subject C, 200/100 mg dose group): 1.0; Fold Change ([2]; EC50 Day 4 vs Day 1, Subject D, 200/100 mg dose group): 1.1; Fold Change ([2]; EC50 Day 4 vs Day 1, Subject N, 100/100 mg dose group): 1.1; Fold Change ([2]; EC50 Day 4 vs Day 1, Subject V, 50/100 mg dose group): 1.7; EC50 ([2]; 24 h, read-out: EC50 Day 1, Subject A, GT 1a, 200/100 mg dose group, Day 1 (baseline) sample): 1.31 nM; EC50 ([2]; 24 h, read-out: EC50 Day 1, Subject B, GT 1a, 200/100 mg dose group, Day 1 (baseline) sample): 1.36 nM; EC50 ([2]; 24 h, read-out: EC50 Day 1, Subject C, GT 1a, 200/100 mg dose group, Day 1 (baseline) sample): 3.11 nM; EC50 ([2]; 24 h, read-out: EC50 Day 1, Subject D, GT 1a, 200/100 mg dose group, Day 1 (baseline) sample): 2.42 nM; EC50 ([2]; 24 h, read-out: EC50 Day 1, Subject E, GT 1a, 200/100 mg dose group, Day 1 (baseline) sample): 0.58 nM; EC50 ([2]; 24 h, read-out: EC50 Day 1, Subject G, GT 1a, 200/100 mg dose group, Day 1 (baseline) sample): 2.68 nM; EC50 ([2]; 24 h, read-out: EC50 Day 1, Subject H, GT 1a, 100/100 mg dose group, Day 1 (baseline) sample): 1.55 nM; EC50 ([2]; 24 h, read-out: EC50 Day 1, Subject I, GT 1a, 100/100 mg dose group, Day 1 (baseline) sample): 1.43 nM; EC50 ([2]; 24 h, read-out: EC50 Day 1, Subject L, GT 1a, 100/100 mg dose group, Day 1 (baseline) sample): 2.8 nM; EC50 ([2]; 24 h, read-out: EC50 Day 1, Subject M, GT 1a, 100/100 mg dose group, Day 1 (baseline) sample): 0.91 nM; EC50 ([2]; 24 h, read-out: EC50 Day 1, Subject N, GT 1a, 100/100 mg dose group, Day 1 (baseline) sample): 0.58 nM; EC50 ([2]; 24 h, read-out: EC50 Day 1, Subject P, GT 1a, 50/100 mg dose group, Day 1 (baseline) sample): 0.81 nM; EC50 ([2]; 24 h, read-out: EC50 Day 1, Subject Q, GT 1a, 50/100 mg dose group, Day 1 (baseline) sample): 0.68 nM; EC50 ([2]; 24 h, read-out: EC50 Day 1, Subject R, GT 1a, 50/100 mg dose group, Day 1 (baseline) sample): 5.97 nM; EC50 ([2]; 24 h, read-out: EC50 Day 1, Subject T, GT 1a, 50/100 mg dose group, Day 1 (baseline) sample): 0.45 nM; EC50 ([2]; 24 h, read-out: EC50 Day 1, Subject U, GT 1a, 50/100 mg dose group, Day 1 (baseline) sample): 1.52 nM; EC50 ([2]; 24 h, read-out: EC50 Day 1, Subject V, GT 1a, 50/100 mg dose group, Day 1 (baseline) sample): 1.01 nM; EC50 ([2]; 24 h, read-out: EC50 Day 1, Subject W, GT 1a, 50/100 mg dose group, Day 1 (baseline) sample): 1.54 nM; EC50 ([2]; 96 h, read-out: EC50 Day 4, Subject A, GT 1a, 200/100 mg dose group, Day 4 sample): 1.14 nM; EC50 ([2]; 96 h, read-out: EC50 Day 4, Subject B, GT 1a, 200/100 mg dose group, Day 4 sample): 1.06 nM; EC50 ([2]; 96 h, read-out: EC50 Day 4, Subject C, GT 1a, 200/100 mg dose group, Day 4 sample): 3.23 nM; EC50 ([2]; 96 h, read-out: EC50 Day 4, Subject D, GT 1a, 200/100 mg dose group, Day 4 sample): 2.57 nM; EC50 ([2]; 96 h, read-out: EC50 Day 4, Subject H, GT 1a, 100/100 mg dose group, Day 4 sample): 10.2 nM; EC50 ([2]; 96 h, read-out: EC50 Day 4, Subject L, GT 1a, 100/100 mg dose group, Day 4 sample): 8.84 nM; EC50 ([2]; 96 h, read-out: EC50 Day 4, Subject N, GT 1a, 100/100 mg dose group, Day 4 sample): 0.64 nM; EC50 ([2]; 96 h, read-out: EC50 Day 4, Subject P, GT 1a, 50/100 mg dose group, Day 4 sample): 8.88 nM; EC50 ([2]; 96 h, read-out: EC50 Day 4, Subject R, GT 1a, 50/100 mg dose group, Day 4 sample): 68.7 nM; EC50 ([2]; 96 h, read-out: EC50 Day 4, Subject U, GT 1a, 50/100 mg dose group, Day 4 sample): 11.5 nM; EC50 ([2]; 96 h, read-out: EC50 Day 4, Subject V, GT 1a, 50/100 mg dose group, Day 4 sample): 1.69 nM; EC50 ([2]; 96 h, read-out: EC50 Day 4, Subject W, GT 1a, 50/100 mg dose group, Day 4 sample): 9.78 nM; Subjects with increased EC50 values at day 4 relative to baseline ([2]; subjects with Day 4 samples amplified, includes GT 1b subject J): 7 of the 13; Fold Change (GT 1a replicon D168A; EC50 of GT 1a D168A vs GT 1a WT): 59; EC50 (GT 1a replicon D168A; Hepatitis C virus, GT1A): 70.4 nM; EC50 (GT 1b replicon WT): 0.07 nM; EC50 (GT 1a replicon WT): 1.19 nM; Fold Change (GT 1a replicon R155G; EC50 of GT 1a R155G vs GT 1a WT): 16; EC50 (GT 1a replicon R155G; Hepatitis C virus, GT1A): 19.2 nM; Fold Change (GT 1b replicon D168V; EC50 of GT 1b D168V vs GT 1b WT): 257; EC50 (GT 1b replicon D168V; Hepatitis C virus, GT1B): 17.5 nM

Which results are given for `CC(C)(C)OC(=O)N[C@H]1CCCCC/C=C\[C@@H]2C[C@@]2(C(=O)NS(=O)(=O)C2CC2)NC(=O)[C@@H]2C[C@@H](OC(=O)N3Cc4cccc(F)c4C3)CN2C1=O` [danoprevir]?
Viral load rebound in patients receiving treatment (HCV): Viral load rebound; Resistance conferred by the R155K mutation (HCV R155K mutation): high-level resistant

Which “Viral load rebound in patients receiving treatment” value (HCV) does the source give for `CC[C@@H]1C[C@]1(NC(=O)[C@@H]1C[C@@H]2CN1C(=O)[C@H](C(C)(C)C)NC(=O)OCC(C)(C)CCCCc1cccc3c1CN(C3)C(=O)O2)C(=O)NS(=O)(=O)C1CC1` [vaniprevir] here?
The value was “viral load rebound”.
